Assay results from ChEMBL document CHEMBL4049438, “Discovery and Optimization of Isoquinoline Ethyl Ureas as Antibacterial Agents” (J Med Chem, 2017).
Values after ≈ are worked out from the molar mass of the structure shown.

What was measured:
[1] = Inhibition of Escherichia coli N-terminal His6-tagged DNA gyrase subunit GyrA/GyrB supercoiling activity expressed in Escherichia coli BL21 (DE3) using relaxed pBR322 DNA as substrate after 1 hr by agarose gel electrophoresis
[2] = Inhibition of Escherichia coli DNA topoisomerase 4 subunit ParC/ParE relaxation expressed in Escherichia coli BL21 (DE3) using supercoiled pBR322 DNA as substrate after 1 hr by agarose gel electrophoresis
[3] = Inhibition of Staphylococcus aureus topoisomerase 4 subunit ParC/ParE relaxation expressed in Escherichia coli BL21 (DE3) using supercoiled pBR322 DNA as substrate after 1 hr by agarose gel electrophoresis
Escherichia coli [4] = experiment: Antibacterial activity against TolC deficient Escherichia coli by broth microdilution method; assay type: functional
Staphylococcus aureus [5] = experiment: Antibacterial activity against Staphylococcus aureus ATCC 29213 by broth microdilution method; assay type: functional
Escherichia coli [6] = experiment: Antibacterial activity against Escherichia coli ATCC 25922 by broth microdilution method; assay type: functional
Staphylococcus aureus [7] = experiment: Antibacterial activity against methicillin-sensitive Staphylococcus aureus A-1178 infected in neutropenic mouse assessed as change in bacterial burden in thighs at 30 mg/kg, po administered every 2.75 hrs for 2 times measured 6.5 hrs post infection; assay type: functional
Staphylococcus aureus [8] = experiment: Antibacterial activity against methicillin/fluoroquinolone-resistant Staphylococcus aureus A-798 harboring topoisomerase gyrA S84L mutant/grlA S80F/Glu84V mutant by broth microdilution method; assay type: functional
Streptococcus pneumoniae [9] = experiment: Antibacterial activity against Streptococcus pneumoniae ATCC 49619 by broth microdilution method; assay type: functional
Streptococcus pneumoniae [10] = experiment: Antibacterial activity against fluoroquinolone-resistant Streptococcus pneumoniae A-70 harboring topoisomerase gyrA S81F mutant/parc S79F mutant/parE I440V mutant by broth microdilution method; assay type: functional
Streptococcus pyogenes = experiment: Antibacterial activity against Streptococcus pyogenes ATCC 19615 by broth microdilution method; assay type: functional
Enterococcus faecalis = experiment: Antibacterial activity against Enterococcus faecalis ATCC 29212 by broth microdilution method; assay type: functional
Enterococcus faecium = experiment: Antibacterial activity against vancomycin/fluoroquinolone-resistant Enterococcus faecium A-949 harboring topoisomerase gyrA E88K mutant/parC S80R mutant by broth microdilution method; assay type: functional
Moraxella catarrhalis = experiment: Antibacterial activity against Moraxella catarrhalis A-894 by broth microdilution method; assay type: functional
Haemophilus influenzae = experiment: Antibacterial activity against Haemophilus influenzae A-921 by broth microdilution method; assay type: functional
[11] = Inhibition of fluoroquinolone-resistant Staphylococcus aureus clinical isolate DNA gyrase subunit GyrB/GyrA S84L mutant supercoiling activity using relaxed pBR322 DNA as substrate after 1 hr by agarose gel electrophoresis
Staphylococcus aureus [12] = experiment: Antibacterial activity against methicillin-sensitive Staphylococcus aureus A-1178 infected in neutropenic mouse thigh infection model assessed as decrease in bacterial load in thighs administered po every 5.5 hrs for 4 times measured after 24 hrs; assay type: functional, organism-based
[13] = Inhibition of Streptococcus pneumoniae DNA gyrase subunit GyrA/GyrB supercoiling activity expressed in Escherichia coli BL21 (DE3) using relaxed pBR322 DNA as substrate after 1 hr mins by agarose gel electrophoresis
[14] = Inhibition of Streptococcus pneumoniae DNA topoisomerase 4 subunit ParC/ParE relaxation expressed in Escherichia coli BL21 (DE3) using supercoiled pBR322 DNA as substrate after 1 hr mins by agarose gel electrophoresis
[15] = Inhibition of Haemophilus influenzae DNA topoisomerase 4 subunit ParC/ParE relaxation expressed in Escherichia coli BL21 (DE3) using supercoiled pBR322 DNA as substrate after 1 hr mins by agarose gel electrophoresis
[16] = Inhibition of Escherichia coli DNA gyrase subunit GyrA/GyrB R136H mutant supercoiling activity expressed in Escherichia coli BL21 (DE3) using relaxed pBR322 DNA as substrate after 1 hr mins by agarose gel electrophoresis
[17] = target: DNA topoisomerase 2-alpha (Homo sapiens, UniProt P11388); experiment: Inhibition of human DNA topoisomerase 2-alpha
[18] = Solubility of compound in phosphate buffer at pH 7; assay type: physicochemical
[19] = Solubility of compound in citrate buffer at pH 4; assay type: physicochemical
hERG (KCNH2) = hERG (KCNH2) (Homo sapiens, UniProt Q12809); experiment: Inhibition of human ERG expressed in CHO cells at 10 uM after 3 mins at -80 mV holding potential by Qpatch assay; assay type: cell-based; settings: CHO cells expressing human ERG
[20] = AUC in Wistar rat at 0.5 mg/kg, iv administered as solution up to 24 hrs by LC-MS/MS analysis; assay type: ADME, organism-based; parameters: dose 0.5 mg/kg, time < 24 hr, route intravenous; settings: in vivo
[21] = Clearance in Wistar rat at 0.5 mg/kg, iv administered as solution up to 24 hrs by LC-MS/MS analysis; assay type: ADME, organism-based; settings: in vivo
[22] = Half life in Wistar rat at 0.5 mg/kg, iv administered as solution up to 24 hrs by LC-MS/MS analysis; assay type: ADME, organism-based; settings: in vivo
[23] = Volume of distribution in steady state in Wistar rat at 0.5 mg/kg, iv administered as solution up to 24 hrs by LC-MS/MS analysis; assay type: ADME, organism-based; settings: in vivo, read-out: Vdss
[24] = AUC in Wistar rat at 2 mg/kg, po administered as suspension up to 24 hrs by LC-MS/MS analysis; assay type: ADME, organism-based; parameters: dose 2 mg/kg, time < 24 hr, route oral; settings: in vivo
[25] = Cmax in Wistar rat at 2 mg/kg, po administered as suspension up to 24 hrs by LC-MS/MS analysis; assay type: ADME, organism-based; parameters: dose 2 mg/kg, route oral; settings: in vivo
[26] = Tmax in Wistar rat at 2 mg/kg, po administered as suspension up to 24 hrs by LC-MS/MS analysis; assay type: ADME, organism-based; settings: in vivo
[27] = Oral bioavailability in Wistar rat at 2 mg/kg administered as suspension up to 24 hrs by LC-MS/MS analysis; assay type: ADME, organism-based; settings: in vivo
[28] = Octanol-phosphate buffer partition coefficient, logD of compound at pH 7.4 by LC/UV analysis; assay type: physicochemical
[29] = AUC in mouse at 30 mg/kg, po after 24 hrs by LC-MS/MS analysis; assay type: ADME, organism-based; parameters: time < 24 hr, dose 30 mg/kg, route oral; settings: in vivo
[30] = Protein binding to mouse plasma by rapid equilibrium dialysis method; assay type: ADME, cell-free; settings: read-out: PPB (converted)
Mus musculus = experiment: Unbound AUC in mouse at 30 mg/kg, po after 24 hrs by LC-MS/MS analysis; assay type: ADME, organism-based; settings: in vivo
Staphylococcus aureus [31] = experiment: Antibacterial activity against methicillin-sensitive Staphylococcus aureus A-1178 by broth microdilution method; assay type: functional
Staphylococcus aureus [32] = experiment: Antibacterial activity against methicillin-sensitive Staphylococcus aureus A-1178 infected in neutropenic mouse assessed as change in bacterial burden in thighs at 10 mg/kg, po administered every 2.75 hrs for 2 times measured 6.5 hrs post infection; assay type: functional
DNA gyrase = DNA gyrase (Staphylococcus aureus, UniProt P0A0K8+P20831)

SMILES: CCNC(=O)Nc1cc2c(-c3ccnc(C)c3)ccc(CNC(=O)OC)c2cn1
- IC50 [1]: 0.03 µM
- IC50 [2]: 8 µM
- IC50 [3]: 2 µM
- MIC (Escherichia coli [4]): 1 µg/mL (≈ 2.54 µM)
- MIC (Staphylococcus aureus [5]): 0.06 µg/mL (≈ 0.152 µM)
- MIC (Escherichia coli [6]): > 16 µg/mL
- Activity (Staphylococcus aureus [7]): -3.5 deltalog10CFU
- MIC (Staphylococcus aureus [8]): 0.06 µg/mL (≈ 0.152 µM)
- MIC (Streptococcus pneumoniae [9]): 0.5 µg/mL (≈ 1.27 µM)
- MIC (Streptococcus pneumoniae [10]): 1 µg/mL (≈ 2.54 µM)
- MIC (Streptococcus pyogenes): 0.5 µg/mL (≈ 1.27 µM)
- MIC (Enterococcus faecalis): 0.25 µg/mL (≈ 0.635 µM)
- MIC (Enterococcus faecium): 1 µg/mL (≈ 2.54 µM)
- MIC (Moraxella catarrhalis): 0.5 µg/mL (≈ 1.27 µM)
- MIC (Haemophilus influenzae): 2 µg/mL (≈ 5.08 µM)
- IC50 [11]: < 0.004 µM
- Activity (Staphylococcus aureus [12]): Dose-dependent effect
- IC50 [13]: 0.5 µM
- IC50 [14]: 0.125 µM
- IC50 [15]: 2 µM
- IC50 [16]: 0.125 µM
- IC50 [17]: > 256 µM
- solubility [18]: 20 µg/mL (≈ 50.8 µM)
- solubility [19]: 340 µg/mL (≈ 864 µM)
- inhibition at 0.05 h, 10 µM (hERG (KCNH2)): 67%
- AUC at 24 h [20]: 261 ng·h/mL
- clearance [21]: 32 mL/min/kg
- half-life [22]: 36 min
- Vd [23]: 0.65 L/kg
- AUC at 24 h [24]: 319 ng·h/mL
- Cmax [25]: 287 ng/mL
- Tmax [26]: 15 min
- bioavailability [27]: 30%
- logD [28]: 3.1
- AUC at 24 h [29]: 45300 ng·h/mL
- fraction unbound [30]: 0.035
- fAUC (Mus musculus): 1590 ng·h/mL
- MIC (Staphylococcus aureus [31]): 0.06 µg/mL (≈ 0.152 µM)
- Activity (Staphylococcus aureus [32]): -2.5 deltalog10CFU
- IC50 (DNA gyrase): 0.008 µM
